Measured values: patent US20100170777A1, “AGENT FOR DEGRADING A NUCLEIC ACID AND METHOD OF DEGRADING A NUCLEIC ACID” (Morinaga Milk Industry Co., Ltd., priority 2006, published 2010)

How the values were obtained:
E. coli chromosomal DNA [1] = assay: Influence of EMA plus visible light on isolated E. coli nucleic acid in vitro (agarose gel electrophoresis), chromosomal DNA band; type: biochemical; conditions: visible light 500 W halogen bulb 20 min
Protocol: (§1) b 1 ml living bacterial suspension of 1.0×10^6 CFU/ml of E. coli/DH5α strain was subjected to centrifugation under a cool condition. After removal of the supernatant, the resulting pellet was added with 0.5 ml of 10 mM Tris-HCl buffer solution (pH 8.0) and further added with 10 μl of 1250U/ml protease K solution and 200 μl of 10% SDS solution, followed by overnight bacteriolysis at 50° C.
(§2) Subsequently, each of the treated solution was divided into two equal volumes and dispensed into two 2 ml micro tubes, respectively. Each of them was added with 0.5 ml of saturated phenol solution, then gently mixed for 15 minutes, and then added with 0.5 ml of chloroform, followed by gently mixing for 5 minutes. After that, the mixture was centrifuged at 6,000×g at 4° C. for 10 minutes. An aqueous phase, an upper layer, was transferred into an another 2 ml microtube and then added with 70 μl of 3M sodium acetate (pH 5.2) and 1.21 ml of 99.5% cold ethanol, followed by gentle mixing. […] The concentration of the purified nucleic acid solution was determined based on the absorbance at UV260 nm (50 μg/ml of the nucleic acid was defined as OD=1, cell length=1 cm:OD260).
(§3) The nucleic acid solution thus prepared was adjusted to 175 ng/μl with sterile water and 4 μl aliquot of the nucleic acid solution was then added to each of microtubes. […] The resulting image was recorded on the Polaroid film 667. […]

[2] = tested on: rRNA (16SrRNA and 23SrRNA); assay: Influence of EMA plus visible light on isolated E. coli nucleic acid in vitro (agarose gel electrophoresis), rRNA bands; type: biochemical; conditions: visible light 500 W halogen bulb 20 min
Protocol: as §1, §2, §3

[3] = tested on: chromosomal DNA in the nucleic acid existing inside of the living bacteria (E. coli); assay: Influence of EMA plus visible light on nucleic acid inside living E. coli (in vivo; agarose gel electrophoresis), chromosomal DNA band; type: cell-based; conditions: living E. coli/DH5α suspension, visible light 500 W halogen bulb 20 min
Protocol: (§4) EMA was dissolved in sterile water to prepare 1000 μg/ml EMA solution. The solution was filtrated for sterilization through a 0.2 μm filter (Minisart-plus; manufactured by Sartorius AG). The EMA solution was added so that the final concentration of EMA become 0 (no addition), 0.01, 0.1, 1, 10, and 100 μg/ml with respect to 1 ml of 1.0×10^6CFU/ml living bacterial suspension of E. coli/DH5α strain, followed by leaving standing at 4° C. for 1 hour.
(§5) Subsequently, at a distance of 20 cm from the above living bacterial suspension on ice, the sample was irradiated for 20 minutes with visible light from a 500 W halogen bulb (FLOOD PRF 100V 500 W; Iwasaki Electric Co., Ltd., Tokyo). […]
(§6) Each of the treated solution was divided into two equal volumes and dispensed into two 2 ml micro tubes, respectively. […] The concentration of the purified nucleic acid solution was determined based on the absorbance at UV260 nm (50 μg/ml of the nucleic acid was defined as OD=1, cell length=1 cm:OD260). The purity of the purified nucliec acid was calculated by dividing OD260 with OD280.
(§7) Each of the nucleic acid solutions was prepared at 175 ng/μl and 4 μl of each was then electrophoresed on 0.7% agarose gel. λ-EcoT14 I digest (manufactured by Takara Bio Inc.) was used as a molecular weight marker. […] The resulting image was recorded on the Polaroid film 667. […]

[4] = tested on: rRNA (16SrRNA and 23SrRNA) of living bacteria (E. coli); assay: Influence of EMA plus visible light on nucleic acid inside living E. coli (in vivo; agarose gel electrophoresis), rRNA bands; type: cell-based; conditions: EMA 10 μg/ml; living E. coli/DH5α suspension; visible light 500 W halogen bulb 20 min
Protocol: as §4, §5, §6, §7

E. coli/DH5α strain = assay: Antibacterial effect of EMA on living bacteria (number of living bacterial cells); type: cell-based; conditions: 1.0×10^6 CFU/ml E. coli/DH5α, visible light 500 W halogen bulb 20 min
Protocol: as §4, with “Ethidium monoazide (EMA) was” for “EMA was”, “filtrated” for “filtrated for sterilization”, “μm sterile” for “μm”, “100 μg/ml, respectively” for “100 μg/ml”, “by left” for “by leaving”, “1 hour under light interception.” for “1 hour.”
Subsequently, at a distant of 20 cm from the above living bacterial suspension on ice, the sample was irradiated for 20 minutes with visible light from a 500 W halogen bulb (FLOOD PRF 100V 500 W; Iwasaki Electric Co., Ltd., Tokyo). The sample was subjected to centrifugation at 15,000×g at 4° C. for 10 minutes and the supernatant was then removed to eliminate a product generated by the reaction of water with the visible light irradiation product of EMA (hydroxyamino ethidium), which could not covalently bind to nucleic acid. The pellet was added with an equal amount of physiological saline solution and then serially diluted, followed by 24 hour incubation at 37° C. using an L-plate agar culture medium to determine the number of living bacterial cells.

E. coli chromosomal DNA [5] = assay: Electron microscopy of E. coli chromosomal DNA treated with EMA and visible light in vitro; type: biochemical; conditions: visible light 500 W halogen bulb 20 min
Protocol: Nucleic acid was extracted in a manner similar to Example 1 as described above. The nucleic acid was then dissolved in 9 ml of sterile water. A nucleic acid solution thus prepared was gently loaded on the top of 32 ml sucrose density gradient (16 ml of 10% sucrose solution and 16 ml of 40% sucrose solution were used) and then subjected to ultracentrifugation at 26,000 rpm at 20° C. for 18 hours with a swing rotor (manufactured by Hitachi Koki Co., Ltd.: RPS-27-2). After the centrifugation, a small hole was opened in the bottom of the sucrose density gradient solution and then fractionated every 1 ml.
After that, for each fraction, 3M sodiumacetate solution (pH 5.2) was added so as to be 10% (vol/vol). Then, 2-fold volume of 99.5% ethanol was added. Subsequently, the fraction was subjected to centrifugation at 15,000×g at 4° C. for 10 minutes to recover the pellet. Then, the pellet was washed with 70% ethanol and then dissolved in 100 μl of sterile water.
Among the samples obtained from the respective fraction solutions, a sample only containing a long chromosomal DNA with 48 kbp in agarose electrophoresis was further diluted with sterile water so as to be a DNA concentration of 175 ng/μl. Then 4 μl of each aqueous EMA solution (0, 0.02, 2, and 20 μg/ml) was added to 4 μl of the DNA solution and then left standing at 4° C. for 1 hour under light interception. […]

CC[n+]1c(-c2ccccc2)c2cc(N=[N+]=[N-])ccc2c2ccc(N)cc21.[Cl-] [EMA, 3-amino-8-azido-5-ethyl-6-phenyl-phenanthridinium chloride]
intensity of the band originated from the chromosomal DNA of approximately 19,329 bps (E. coli chromosomal DNA [1]; EMA 100 ng/ml to 1 μg/ml): gradually decreased
intensity of the band originated from the chromosomal DNA of approximately 19,329 bps (E. coli chromosomal DNA [1]; EMA 10 μg/ml): significantly disappeared
band intensity of rRNA (16SrRNA and 23SrRNA) ([2]; EMA 1 μg/ml): decreased
band intensity of rRNA (16SrRNA and 23SrRNA) ([2]; EMA 10 μg/ml or more): disappeared
intensity of the band originated from the chromosomal DNA of approximately 19,329 bps ([3]; EMA 10 μg/ml): gradually decreased
intensity of the band originated from the chromosomal DNA of approximately 19,329 bps ([3]; EMA 100 μg/ml): significantly disappeared
band intensity of rRNA (16SrRNA and 23SrRNA) [4]: decreased
decrease in number of living bacterial cells in comparison with the original number (E. coli/DH5α strain; EMA 10 μg/ml): ~10^2 CFU/ml
decrease in number of living bacterial cells in comparison with the original number (E. coli/DH5α strain; EMA 100 μg/ml): ~10^5 CFU/ml
effect of cleaving the chromosomal DNA (electron microscopy) (E. coli chromosomal DNA [5]; EMA 0 to 0.01 μg/ml): not observed
effect of cleaving the chromosomal DNA (electron microscopy) (E. coli chromosomal DNA [5]; EMA 1 μg/ml or more): caused the cleaving phenomenon of chromosomal DNA
